These results are taken from patent publication US10794932B2, “Biosensor for the detection of a biological target, and method for manufacturing the same” (The Governing Council of The University of Toronto, priority 2016, dated 2020).

The assay concerns the target T1, 'rmTLR1 and 2' mixture (Mus musculus, UniProt Q9EPQ1+Q9QUN7).
T1 construct: Fc (chimera); purchased R&D Systems RDS1476TR050 + RDS1530TR050
T1 sequence (Q9EPQ1 26-582 limits assumed): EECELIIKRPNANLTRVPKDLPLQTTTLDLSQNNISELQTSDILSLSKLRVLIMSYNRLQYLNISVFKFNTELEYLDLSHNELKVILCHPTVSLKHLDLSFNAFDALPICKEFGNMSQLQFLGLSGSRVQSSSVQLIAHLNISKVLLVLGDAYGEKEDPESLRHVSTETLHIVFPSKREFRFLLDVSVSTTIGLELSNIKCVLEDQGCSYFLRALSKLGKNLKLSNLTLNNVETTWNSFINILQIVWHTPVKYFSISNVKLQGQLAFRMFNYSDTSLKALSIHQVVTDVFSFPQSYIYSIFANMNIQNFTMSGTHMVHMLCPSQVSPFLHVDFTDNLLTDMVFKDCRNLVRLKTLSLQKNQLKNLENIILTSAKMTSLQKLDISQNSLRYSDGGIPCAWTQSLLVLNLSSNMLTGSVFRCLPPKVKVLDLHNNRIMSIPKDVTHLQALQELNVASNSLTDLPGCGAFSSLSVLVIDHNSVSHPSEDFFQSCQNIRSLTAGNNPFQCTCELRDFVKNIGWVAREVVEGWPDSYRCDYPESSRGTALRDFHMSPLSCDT
T1 sequence (Q9QUN7 25-587 limits assumed): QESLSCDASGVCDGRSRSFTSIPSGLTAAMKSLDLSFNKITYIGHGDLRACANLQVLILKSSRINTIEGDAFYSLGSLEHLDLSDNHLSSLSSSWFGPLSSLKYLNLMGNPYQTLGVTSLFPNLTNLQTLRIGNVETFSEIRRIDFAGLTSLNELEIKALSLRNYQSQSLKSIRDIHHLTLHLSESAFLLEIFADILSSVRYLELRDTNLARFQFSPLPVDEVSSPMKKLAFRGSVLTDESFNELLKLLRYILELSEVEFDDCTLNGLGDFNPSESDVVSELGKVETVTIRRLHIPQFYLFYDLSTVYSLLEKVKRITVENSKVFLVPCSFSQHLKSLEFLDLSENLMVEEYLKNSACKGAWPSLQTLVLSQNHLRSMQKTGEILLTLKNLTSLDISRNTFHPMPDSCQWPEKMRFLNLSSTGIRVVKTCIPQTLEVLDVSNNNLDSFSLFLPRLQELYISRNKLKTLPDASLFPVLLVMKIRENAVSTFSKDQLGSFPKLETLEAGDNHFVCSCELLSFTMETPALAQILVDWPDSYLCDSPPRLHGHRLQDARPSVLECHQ
Briefly: Label-free hybridized 'TLR1 and 2' sensor, EIS detection of Pam3CSK4 (Example 7). The assay is classed as binding. To be noted: for delta Rct % / Rct: 'TLR1 and 2' sensor; for delta Rct %: 20 minutes; for Rct: before immersion 5472. As for the experimental part: TLR sensors were prepared using fresh, cleaned gold electrodes. The electrodes were immersed in a 2 mM 1-lipoic acid n-hydroxysuccinimide ester (LPA) ethanol solution for 48 hours at 277 K. The electrodes were then rinsed thoroughly using absolute ethanol and blown dry under nitrogen before incubation in 200 μg/ml rmTLR1, 200 μg/ml rmTLR2 and 200 μg/ml ‘rmTLR1 and 2’ mixture for 72 hours at 277 K. The rmTLR1 and 2 mixture was prepared by mixing 200 μg/ml rmTLR1 and 200 μg/ml rmTLR2 with a volume ratio of 1:1. The final concentration of each component was 100 μg/ml and the total concentration of the combined TLR protein content was 200 μg/ml. Following the supplier's recommended conditions, all TLRs were prepared in PBS buffer (pH˜7.4). The electrodes were rinsed with an excess volume of Milli-Q water and blown dry under nitrogen. An ethanolamine-tris buffer solution was prepared by dissolving 1.2 g of ethanolamine and 0.121 g of Tris base in 20 mL of water, the pH was adjusted to 8.4 using hydrochloric acid. TLR-immobilized electrodes were incubated in the ethanolamine solution for one hour at room temperature in order to block any remaining unreacted LPA amine sites. The fabricated sensors with immobilized, standalone rmTLR3, rmTLR4/MD-2 and rmTLR5, used for the selectivity test, were prepared using the same protocol described above.
Pam3CSK4 was dissolved in 10 mM HEPES aqueous buffer at pH˜7.4. The blocked rmTLR biosensors were incubated in Pam3CSK4 at various concentrations for 20 minutes. The electrodes were always washed thoroughly with same HEPES buffer (pH˜7.4) after the incubation.
All electrochemical measurements were carried out using a cell with a three-electrode configuration in an enclosed Faraday cage. CV and EIS measurements were completed using a CHI-660b potentiostat (CH Instruments, Austin, Tex.). rmTLR-modified gold electrodes and platinum (Pt) wire were used as the working electrode and the counter electrode, respectively. A reference electrode (Ag/AgCl/3.0M KCl) and a salt bridge, filled with an agar and 1M KNO3 aqueous solution, were inserted to minimize the diffusion of chloride ions into the electrolyte solution. The agar solution was prepared by dissolving 2.0 grams of agar and 10.1 g KNOB in 100 mL of water. The CV and EIS electrolyte was made in a 10 mM HEPES aqueous buffer at pH˜7.4, which consisted of a 5 mM K4Fe(CN)6/5 mM K3Fe(CN)6 as a redox couple with 1M of NaClO4 as the supporting electrolyte. For consistency, the electrochemical measurements were carried out with open-circuit potentials. EIS experiments were conducted in the frequency range of 100,000 to 0.1 Hz with an amplitude of 5 mV. The experimental EIS curves were evaluated to determine the film resistance using ZSimpWin 2.0 software.

Pam3CSK4: the “delta Rct %” value reads like this: (5 μM) 37±11%; (25 μM) 125±19%; (50 μM) 199±26%. In addition, the Rct by setting is: (after 5 μM) 5688 Ω · cm^2; (after 10 μM) 7147 Ω · cm^2; (after 25 μM) 11260 Ω · cm^2; (after 50 μM) 15620 Ω · cm^2. Further, the limit of detection (hybridized 'TLR1 and 2' sensor) is 5 µM.
